In publication PMC7659345, “Viral rhodopsins 1 are an unique family of light-gated cation channels” (Nature Communications, 2020):

Columns and labels:
OLPVR1 = target: T1, OLPVR1 (Organic Lake phycodnavirus 1, UniProt Z9N4O7KYY5); test: X-ray crystal structure, […] A (type A, P21212) and […] A (type B, P1); assay type: binding; details: covalent Schiff base to K204; all-trans 15-anti; crystals grown in meso with monopalmitolein, pH 8.0 (7AKY); also 7AKX (monoolein, pH 7.0)
T1 construct: residues 2-223 resolved; one (P21212) or two (P1) molecules per asymmetric unit
T1 sequence (Z9N4O7KYY5 1-223): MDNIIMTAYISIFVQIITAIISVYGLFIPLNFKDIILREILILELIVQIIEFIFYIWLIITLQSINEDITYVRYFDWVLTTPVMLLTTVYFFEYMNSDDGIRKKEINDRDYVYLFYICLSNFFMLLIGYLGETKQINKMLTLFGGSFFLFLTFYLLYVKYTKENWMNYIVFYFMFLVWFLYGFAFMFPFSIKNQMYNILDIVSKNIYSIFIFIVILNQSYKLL

VirChR1 = target: T2, VirChR1 (marine metagenome, UniProt Z9TV22U1G0); test: UV-visible absorption of purified holoprotein; assay type: binding; details: covalent Schiff base (by homology); pH 7.5; all-trans-retinal added to E. coli culture
T2 sequence (Z9TV22U1G0 1-242): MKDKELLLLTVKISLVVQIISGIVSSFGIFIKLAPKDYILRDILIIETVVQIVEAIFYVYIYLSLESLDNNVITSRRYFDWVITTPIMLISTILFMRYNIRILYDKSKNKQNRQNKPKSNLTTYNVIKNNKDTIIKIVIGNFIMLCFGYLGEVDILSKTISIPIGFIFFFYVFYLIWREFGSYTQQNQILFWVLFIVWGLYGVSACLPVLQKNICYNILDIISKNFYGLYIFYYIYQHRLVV

CC1=C(/C=C/C(C)=C/C=C/C(C)=C/C=O)C(C)(C)CCC1 [all-trans retinal]
X-ray crystal structure, 1.4 A (type A, P21212) and 1.6 A (type B, P1) (OLPVR1): all-trans retinal (ATR) covalently bound to K204 (K257 in CrChR2
UV-visible absorption of purified holoprotein (VirChR1): Both OLPVR1 and VirChR1 show absorption spectra sensitive to blue light
